Measurements taken from patent publication US8193377B2, “(−)-epigallocatechin gallate derivatives for inhibiting proteasome” (The Hong Kong Polytechnic University, priority 2004, dated 2012).
pIC50: −log10 of the molar value. Read-outs that look alike come from different tables or passages of the source. Blank lines part the entries; values can stand above or below the molecule they belong to.

What was measured:
[1] = molecular target: T1, purified rabbit 20s proteasome (Oryctolagus cuniculus, UniProt G1T4Q9); test: Inhibition of chymotrypsin-like activity of purified 20S proteasome; assay type: biochemical; settings: for pIC50: up to 25 μM, 30 min incubation, read-out: IC50; for IC50: Suc-Leu-Leu-Val-Tyr-AMC, 2 h incubation, Table 1, read-out: IC50 (μM), unprotected
T1 construct: purchased Boston Biochem (Cambridge, Mass.)
T1 sequence (G1T4Q9 1-263): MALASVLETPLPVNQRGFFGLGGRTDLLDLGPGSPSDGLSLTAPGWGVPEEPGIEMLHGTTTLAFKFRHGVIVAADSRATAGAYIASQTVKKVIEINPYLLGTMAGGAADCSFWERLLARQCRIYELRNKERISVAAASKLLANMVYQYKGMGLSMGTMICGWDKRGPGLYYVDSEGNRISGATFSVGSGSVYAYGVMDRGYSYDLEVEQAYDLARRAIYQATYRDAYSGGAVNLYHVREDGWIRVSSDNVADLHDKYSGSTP
Experimental: Measurement of the chyrnotrypsin-like activity of the 20s proteasome was performed by incubating 0.5 μg of purified rabbit 20s proteasome with 40 μM fluorogenic peptide substrate, Suc-Leu-Leu-Val-Tyr-AMC, with or without various concentrations of natural and synthetic tea polyphenols as described previously (Nam S et. al.).
In order to test this hypothesis, proteasome activity was tested both in vitro and in intact Jurkat T cells with either 1 or (−)-EGCG (as a positive control). First, 1 and commercial (−)-EGCG were dissolved in DMSO and their effects on the chymotrypsin-like activity of purified 20S proteasomes were measured. […] In contrast, (−)-EGCG at 10 μM inhibited 80-90% of the proteasomal chymotrypsin-like activity. Therefore, as predicted, 1 outside of a cellular system is not a proteasome inhibitor.
Up to 25 μM of all protected and unprotected compounds were incubated with a purified 20s proteasome and a fluorogenic substrate for chyrnotrypsin activity for 30 min. The half-maximal inhibitory concentration or IC50 was then determined. […] This is consistent with the results above.

[2] = system: ubiquitinated proteins, Bax, p27, IκBα in Jurkat T cells; test: Western blot for ubiquitinated proteins and proteasome targets (Bax, p27, IκBα) in Jurkat T cells; assay type: cell-based, human; settings: 25 μM, up to 8 h
Experimental: Whole cells extracts were prepared as described previously (An B, Goldfarb R H, Siman R, Dou Q P. Novel dipeptidyl proteasome inhibitors overcome Bc1-2 protective function and selectively accumulate the cyclin-dependent kinase inhibitor p27 and induce apoptosis in transformed, but not normal, human fibroblasts. Cell Death Differ 1998; 5: 1062-75.). Analysis of Bax, IKBa, p27, PAW, and ubiquitinated protein expression were performed using monoclonal or polyclonal antibodies according to previously reported protocols (An B et. al.).
To determine what effects the synthetic tea analogs had on the proteasome in vivo, Jurkat cells were treated with 25 μM of each synthetic compound for either 4 or 24 h, with (−)-EGCG as a control (FIGS. 9A and 9B). […] This is consistent with the idea that protected analogs are potent inhibitors of the proteasome at an earlier time point and that after 24 h of treatment the ubiquitinated proteins are being depleted by deubiquitinating enzymes. […] The putative ubiquitinated IκBα band is still found in cells treated with 2a, 3a, and 4a (FIG. 9B, Lanes 9, 5, 7). The presumed ubiquinated IκBα band is now absent in the 24 h treatment, possibly due to deubiquitination (FIG. 9B). Actin was used as a loading control in this experiment.
The pro-apoptotic protein Bax and the cyclin-dependent kinase inhibitor p27 are natural proteasome targets. If the peracetate-protected polyphenols inhibit the intact proteasome activity, we would expect accumulation of Bax and p27 in these cells. To test this idea, Jurkat T cells were treated with both protected and unprotected compounds and lysates were analyzed by Western blot using specific antibodies to Bax and p27 (FIG. 15). After 4 h of treatment, the peracetate-protected analogs 24* and 19*, but not their unprotected analogs, were able to increase accumulation of both Bax (by 3- and 2.5-fold, respectively) and p27 (6- and 11-fold, respectively) (FIG. 15A). After 24 h treatment, Bax levels were increased in cells treated with all of the peracetate-protected compounds (13-, 12-, 40- and 36-fold, respectively, by 24*, 19*, 21* and 23*).

[3] = molecular target: 20S prokaryotic proteasome (UniProt Q9P992); settings: Table 2, Reference a (Smith et al. 2004), cited from earlier work
Sequence of 20S prokaryotic proteasome (Q9P992 whole entry): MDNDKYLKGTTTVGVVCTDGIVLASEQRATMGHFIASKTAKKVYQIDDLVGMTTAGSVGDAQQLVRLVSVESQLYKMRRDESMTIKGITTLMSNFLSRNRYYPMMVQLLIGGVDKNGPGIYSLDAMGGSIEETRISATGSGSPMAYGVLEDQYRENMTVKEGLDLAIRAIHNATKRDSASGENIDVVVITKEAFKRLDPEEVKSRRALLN

[4] = molecular target: 20S prokaryotic proteasome (UniProt Q9P992); test: Table 2: effects of tea polyphenols on 20S prokaryotic proteasome activities; assay type: biochemical; settings: Table 2, This work
Experimental: To further examine the effects of B-ring —OH group deletion on proteasome-inhibitory and cell death-inducing abilities, we synthesized several novel EGCG analogs with eliminated —OH groups on the B-ring as well as their putative prodrugs, the peracetate-protected counterparts. By using a purified 20S proteasome and a chymotrypsin-like fluorogenic substrate, the proteasome-inhibitory effects of the following unprotected polyphenol analogs are determined: […]

[5] = molecular target: T2, proteasomal chymotrypsin-like activity in Jurkat T cells (Homo sapiens, UniProt P28074); test: Proteasomal chymotrypsin-like activity in intact Jurkat T cells / their lysates; assay type: cell-based; settings: 25 μM, 4 and 24 h
T2 construct: measurement of the proteasomal chymotrypsin-like activity in the prepared lysates; endogenous in cells; host or cells: Jurkat T cells (human leukemia)
T2 sequence (P28074 60-263): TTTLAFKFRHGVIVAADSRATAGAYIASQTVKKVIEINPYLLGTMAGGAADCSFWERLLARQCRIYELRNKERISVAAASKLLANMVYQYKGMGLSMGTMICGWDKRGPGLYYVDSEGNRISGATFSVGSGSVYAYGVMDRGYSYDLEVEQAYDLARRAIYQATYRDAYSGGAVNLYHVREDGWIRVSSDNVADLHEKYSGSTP
Experimental: VA-13 or WI-38 cells were grown in 24 well plates (2 ml/well) to 70-80% confluency, followed by 24 h treatment with […] (−)-EGCG, 2, or 2a. […] Suc-Leu-Leu-Val-Tyr-AMC substrate was then added for 2.5 h at 37° C. and the chyrnotrypsin-like activity was measured as described above. Alternatively, cells were treated with each compound at 25 μM for 4 or 24 h, and harvested and lysed. Suc-Leu-Leu-Val-Tyr-AMC (40 μM) was then incubated with the prepared cell lysates for 2.5 h and the chymotrypsin-like activity was measured as described above.
If 1 converts to (−)-EGCG inside the cells, proteasome inhibition in vivo should be detected. To examine this possibility, human Jurkat cells was treated with 25 μM of 1 or (−)-EGCG for 12 or 24 h, followed by measurement of proteasome activity by using a chymotrypsin-like specific fluorogenic substrate in intact cells (FIG. 6a) or Western blot for ubiquinated proteins (FIG. 6b). […] To analyze the intracellular level of polyubiquitinated proteins, cells were lysed after 12 hours incubation and subjected to Western blotting. […] It is possible that the amount of EGCG generated from 1, and thus its biological activity inside the cells depends on a combination of factors: the relative permeability of 1 into the cells, the amount of esterase enzymes and the amount of anti-oxidants that may be present in the cells at any time.
To determine whether the unprotected and protected polyphenol analogs could inhibit the proteasomal activity in intact cells, leukemia Jurkat T cells were treated with each compound at 25 μM for 4 and 24 h, followed by collection of cell pellets and measurement of the proteasomal chymotrypsin-like activity in the prepared lysates.

VA-13 cells = test: Immunostaining of apoptotic cells with anti-cleaved PARP-FITC; assay type: cell-based, human; settings: 25 μM, 24 h
Experimental: Immunostaining of apoptotic cells was performed by addition of a FITC-conjugated polyclonal antibody that recognizes cleaved poly(ADP-ribose) polymerase (PARP) and visualized on an Axiovert 2 5 (Zeiss; Thornwood, N.Y.) microscope. Cells were grown to about 80% confluency in 60 mm dishes. VA-13 cells were then treated with VP-16, 2, or 2a (25 μM) for 24 h. Following treatment, both suspension and adhering cells were collected and washed twice in PBS pH 7.4. The cells were washed between all steps listed below and all washes are 1 min duration with PBS. Cells were then fixed in ice-cold 70% ethanol, permeabilized in 0.1% Triton-X-100 and blocked for 30 min in 1% bovine serum albumin (BSA) at room temperature. Incubation with the primary FITC-conjugated-p85/PARP antibody was for 30 min at 4° C. in the dark with mild shaking. Cell suspension was then transferred to glass slides in the presence of Vector Shield mounting medium with DAPI. Images were captured using AxioVision 4.1 and adjusted using Adobe Photoshop 6.0 software. Cell death was quantified by counting the number of apoptotic cells over the total number of cells in the same field. Data are mean of duplicate experiments ±SD.
It has been shown that proteasome inhibition can induce apoptosis in a wide variety of cancer cells, but not in normal, non-transformed cells (An B et al). Jurkat T cells are treated with 25 μM of each of the selected polyphenols and their protected analogs for 24 h to investigate their abilities to induce apoptotic cell death. […] The unprotected 2 induced much less apoptosis (21%), while 25 μM VP-16, used as a positive control, induced 92% apoptosis (FIGS. 10C and 10D). Counterstain with DAPI, which binds to the minor groove in A-T rich regions of DNA, was decreased drastically in apoptotic cells (FIG. 10C), consistent with DNA fragmentation in late stage apoptosis.

- pIC50 [1]: 4.82 to 4.85
Compound: O=C(O[C@@H]1Cc2c(O)cc(O)cc2O[C@H]1c1cc(O)c(O)c(O)c1)c1ccc(O)cc1 (relative stereo) [Compound 3, (2S*,3R*)-trans-5,7-Bis(hydroxy)-2-[3,4,5-tris(hydroxy)phenyl]chroman-3-yl 4-(hydroxy)benzoate]

- pIC50 [1]: 4.82 to 4.85
Compound: O=C(O[C@@H]1Cc2c(O)cc(O)cc2O[C@H]1c1cc(O)c(O)c(O)c1)c1cc(O)cc(O)c1 (relative stereo) [Compound 4, (2S*,3R*)-trans-5,7-Bis(hydroxy)-2-[3,4,5-tris(hydroxy)phenyl]chroman-3-yl 3,5-bis(hydroxy)benzoate]
- time course of ubiquitinated protein accumulation [2]: highest expression after 8 hours

Compound: O=C(OC1Cc2c(O)cc(O)cc2OC1c1ccc(O)c(O)c1)c1cc(O)c(O)c(O)c1 (single isomer, unassigned; (+)) [(+)-ECG]
- pIC50 ([3]; read-out: IC50): 6.14

Compound: O=C(OC1Cc2c(O)cc(O)cc2OC1c1ccc(O)c(O)c1)c1cc(O)c(O)c(O)c1 (single isomer, unassigned; (-)) [(−)-CG]
- pIC50 [3]: 6.12

Compound: O=C(O[C@H]1Cc2c(O)cc(O)c(Cc3ccccc3)c2O[C@H]1c1ccc(O)c(O)c1)c1cc(O)c(O)c(O)c1 [#1, (+)-(2S,3S)-5,7-dihydroxy-8-benzyl-2-[3,4-dihydroxy-phenyl]chroman-3-yl 3,4,5-trihydroxybenzoate]
- pIC50 [4]: 6.41

Compound: O=C(OC1Cc2c(O)cc(O)cc2OC1c1ccc(O)cc1)c1cc(O)c(O)c(O)c1 (centres unmarked) [#m]
- pIC50 [4]: 5.34

Compound: O=C(O[C@H]1Cc2c(O)cc(O)cc2O[C@@H]1c1ccc(O)c(O)c1)c1cc(O)c(O)c(O)c1 [(+)-CG, (+)-(2R,3S)-5,7-dihydroxy-2-(3,4-dihydroxyphenyl)chroman-3-yl 3,4,5-trihydroxybenzoate]
- pIC50 [3]: 6.14

Compound: O=C(O[C@@H]1Cc2c(O)cc(O)cc2O[C@@H]1c1ccc(O)c(O)c1)c1cc(O)c(O)c(O)c1 [(−)-ECG, (−)-epicatechin-3-gallate]
- pIC50 [3]: 6.24

- IC50 [1]: 8.51 µM
- proteasome inhibition in intact Jurkat T cells [5]: moderate potency
Compound: O=C(O[C@@H]1Cc2c(O)cc(O)cc2O[C@@H]1c1ccc(O)cc1)c1ccc(O)cc1 [Compound 10, (−)-(2R,3R)-5,7-dihydroxy-2-(4-hydroxyphenyl)chroman-3-yl 4-hydroxybenzoate]

- IC50 [1]: 7.7 µM
Compound: O=C(O[C@H]1Cc2c(O)cc(O)cc2O[C@@H]1c1ccc(O)c(O)c1)c1ccc(O)cc1 [Compound 11, (+)-(2R,3S)-5,7-dihydroxy-2-(3,4-dihydroxyphenyl)chroman-3-yl 4-hydroxybenzoate]

- IC50 [1]: 5.99 µM
Compound: O=C(O[C@@H]1Cc2c(O)cc(O)cc2O[C@@H]1c1ccc(O)c(O)c1)c1ccc(O)cc1 [Compound 12, (−)-(2R,3R)-5,7-dihydroxy-2-(3,4-dihydroxyphenyl)chroman-3-yl 4-hydroxybenzoate]

Compound: O=C(O[C@H]1Cc2c(O)cc(O)cc2O[C@H]1c1ccccc1)c1cc(O)c(O)c(O)c1 [Compound 15, (+)-(2S,3S)-5,7-dihydroxy-2-phenylchroman-3-yl 3,4,5-trihydroxybenzoate]
- pIC50 [4]: 5.34
- proteasome inhibition in intact Jurkat T cells [5]: moderate potency

- IC50 [1]: 0.59 µM
Compound: O=C(OC1Cc2c(O)cc(O)c(Cc3ccccc3)c2OC1c1ccc(O)c(O)c1)c1cc(O)c(O)c(O)c1 (centres unmarked) [Compound 16]

Compound: COc1cc([C@@H]2c3cc4c(cc3[C@@H](O[C@@H]3O[C@@H]5CO[C@@H](C)O[C@H]5[C@H](O)[C@H]3O)[C@H]3COC(=O)[C@H]23)OCO4)cc(OC)c1O [VP-16, reference compound]
- apoptotic cells (p85 cleaved PARP) (VA-13 cells): 92%
